Test results reported in article PMC8486872, “A rational blueprint for the design of chemically-controlled protein switches” (Nature Communications, 2021).
pIC50: −log10 of the molar value. “And” between values parts separate entries of the source, which are not always exact repeats. Equal entries are not always repeated.

Tests used:
Format in all cases: cell-based
[1] = system: Gal4/UAS SEAP expression in HEK293T cells; assay: Drug specificity of CDH-TFs; conditions: Suppl Fig 7b
Protocol: Supplementary Figure 7: Dose-dependence and reversibility characterization of CDHs in CDH-
a) Background signal of SEAP reporter in the absence of the CDH-TF system. HEK239T cells were
(§1) transfected with SEAP reporter S132 and treated with 1 µM Drugs 12 hours post transfection.
(§2) Quantification of SEAP was performed 24 hours after drug treatment. b) Drug specificity of CDH-TFs. […]

[2] = system: SEAP and Luciferase expression in HEK293T cells; assay: MIMO designer cells (AIR-1/2-GEMS + CDH-3-TF); conditions: for SEAP: Fig5c, turn ON via AIR-2-GEMS
Excerpt: We first engineered MIMO cells to respond to two drugs with distinct outputs (Fig. 5a) by co-transfecting the CDH-3-TF with either AIR-1-GEMS (Fig. 5b) or AIR-2-GEMS (Fig. 5c).
Fig. 5 Orthogonal chemical switches enable implementation of multi-input multi-output control modes in mammalian cells. a Scheme of multi-inputs multi-outputs (MIMO) designer cells where two drugs control two different outputs. b, c Cells were co-transfected with AIR-1/2-GEMS and CDH-3-TF regulate SEAP and Luciferase expression, respectively. […] AIR-1/2-GEMS coupled with SEAP expression circuits were co-transfected with CDH-1/2-TF circuits which control the Luciferase production. Respective drug concentrations ranged from 0.001 nM to 1 µM. All values presented are mean ± s.d. of three replicates and curves were fitted by four-parameters nonlinear regression. b, c, e, f, h, i Source data are available in the source data file.
Supplementary Figure 13: Orthogonal chemical switches enable implementation of multi-input multi-output control modes in mammalian cells. a) Dual drug toxicity tests in 293T cells. […]
concentrations of 1 nM, 10 nM, 100 nM and 1000 nM each drug in cell culture medium. CCK8 assay was performed 24 hours after drug treatment. Each bar represents the mean of three biological replicates ± s.d, overlaid with a scatter dot plot of the original data points. b-c) Cells were co-transfected with AIR-1-GEMS and CDH-3-TF regulate SEAP and Luciferase expression, respectively. Drug concentrations ranged from 0.001 nM to 1 µM and different combinations were added depending on the protein components, Drug-1 only (b) and Drug-3 only (c). d-e) Cells were co-transfected with AIR-2-GEMS and CDH-3-TF regulate SEAP and Luciferase expression, respectively. Drug concentrations ranged from 0.001 nM to 1 µM and different combinations were added depending on the protein […]
1-TF and CDH-3-TF circuits. Drug-1 concentrations ranged from 0.001 nM to 1 µM (left) and 1 µM Drug-1 with serial diluted Drug-3 from 0.001 nM to 1 µM (right). g) Quantification of SEAP activity controlled by CDH-1-GEMS and CDH-3-GEMS circuits. Drug-1 concentrations ranged from 0.001 nM to 1 µM (left) and Drug-3 dilution along with 1 µM Drug-1 (right). h-i) Quantification of SEAP and Luciferase activities under Drug-1. AIR-1-GEMS coupled with SEAP expression circuits (i) and CDH-1-TF circuits which control the Luciferase production (j). j-k) Quantification of SEAP and Luciferase activities under Drug-2. AIR-2-GEMS coupled with SEAP expression circuits (k) and CDH-2-TF circuits which control the Luciferase production (l). b-k) Each data point represents the mean of n = 3 biological replicates, and the dose-dependent curve were fitted using four-parameter nonlinear regression.

[3] = system: SEAP expression in HEK293T cells; assay: Background signal of SEAP reporter and single-construct controls
Protocol: Supplementary Figure 7: Dose-dependence and reversibility characterization of CDHs in CDH- […]
as §1, §2
Background signal of SEAP reporter in the absence of the CDH-GEMS system. HEK293T cells were transfected with pLS566 SEAP reporter plasmids and treated with drugs. Quantification of SEAP was performed 24 hours post drug treatment. f) SEAP activity upon transfecting single or paired […]
Quantification of SEAP activity of three CDHs with DMSO (dark color), specific (light color) and unspecific drug treatment (gray). […]
(culture medium) in panels of b, c, f and g were collected every 12 hours. Values were normalized to zero based on the SEAP expression at time 0. a, b, e, f, g) The bar charts show the mean ± s.d. of n = 3 biologically independent samples overlaid with a scatter dot plot of the original data points.

[4] = Suppl Fig 7a, TF reporter (S132) only
[5] = Suppl Fig 7e, GEMS reporter (pLS566) only
[6] = Fig5c SEAP via AIR-2-GEMS, four-parameter fit

CN(C)CC#Cc1ccc(OCCCc2sc(N3CCc4cccc(C(=O)Nc5nc6ccccc6s5)c4C3)nc2C(=O)O)c(F)c1 [Drug-1, A-1155463]
Reporter signal, drug specificity ([1]; CDH1): 10.7853 and 9.721 and 10.2555
Reporter signal, drug specificity ([1]; CDH3): 120.91 and 123.106 and 130.139
AIR-1-GEMS controlled SEAP expression ([2]; Fig S13b, Drug-1 0.01 nM): 2.034 U/L and 2.266 U/L and 2.426 U/L
CDH-3-TF controlled Luciferase expression ([2]; Fig S13b, Drug-1 0.01 nM): 63197 RLU and 77075 RLU and 76343 RLU
AIR-1-GEMS controlled SEAP expression ([2]; Fig S13b, Drug-1 0.1 nM): 2.577 U/L and 3.504 U/L and 1.937 U/L
CDH-3-TF controlled Luciferase expression ([2]; Fig S13b, Drug-1 0.1 nM): 69663 RLU and 84855 RLU and 75827 RLU
AIR-1-GEMS controlled SEAP expression ([2]; Fig S13b, Drug-1 1 nM): 2.677 U/L and 2.7744 U/L and 2.999 U/L
CDH-3-TF controlled Luciferase expression ([2]; Fig S13b, Drug-1 1 nM): 81097 RLU and 77144 RLU and 82001 RLU
AIR-1-GEMS controlled SEAP expression ([2]; Fig S13b, Drug-1 3.16 nM): 4.756 U/L and 3.455 U/L and 4.71 U/L
CDH-3-TF controlled Luciferase expression ([2]; Fig S13b, Drug-1 3.16 nM): 79328 RLU and 72559 RLU and 71332 RLU
AIR-1-GEMS controlled SEAP expression ([2]; Fig S13b, Drug-1 10 nM): 14.6262 U/L and 14.8753 U/L and 12.6214 U/L
CDH-3-TF controlled Luciferase expression ([2]; Fig S13b, Drug-1 10 nM): 80379 RLU and 81140 RLU and 95805 RLU
AIR-1-GEMS controlled SEAP expression ([2]; Fig S13b, Drug-1 31.6 nM): 24.9389 U/L and 23.1767 U/L and 24.3137 U/L
CDH-3-TF controlled Luciferase expression ([2]; Fig S13b, Drug-1 31.6 nM): 89062 RLU and 83795 RLU and 94983 RLU
AIR-1-GEMS controlled SEAP expression ([2]; Fig S13b, Drug-1 100 nM): 28.6367 U/L and 35.4252 U/L and 28.7763 U/L
CDH-3-TF controlled Luciferase expression ([2]; Fig S13b, Drug-1 100 nM): 85794 RLU and 82597 RLU and 83527 RLU
AIR-1-GEMS controlled SEAP expression ([2]; Fig S13b, Drug-1 316 nM): 33.0089 U/L and 34.8793 U/L and 29.7782 U/L
CDH-3-TF controlled Luciferase expression ([2]; Fig S13b, Drug-1 316 nM): 82096 RLU and 72932 RLU and 89789 RLU
AIR-1-GEMS controlled SEAP expression ([2]; Fig S13b, Drug-1 1000 nM): 37.3806 U/L and 38.9993 U/L and 31.1376 U/L
CDH-3-TF controlled Luciferase expression ([2]; Fig S13b, Drug-1 1000 nM): 73138 RLU and 75381 RLU and 85198 RLU
Reporter background signal [3, 4]: 2.1563 and 2.182 and 2.388
Reporter background signal [3, 5]: 2.888 and 3.062 and 3.039

CC1(C)CCC(CN2CCN(c3ccc(C(=O)NS(=O)(=O)c4ccc(NCC5CCOCC5)c([N+](=O)[O-])c4)c(Oc4cnc5[nH]ccc5c4)c3)CC2)=C(c2ccc(Cl)cc2)C1 [Drug-2, Venetoclax]
Reporter signal, drug specificity ([1]; CDH2): 31.2802 and 28.6812 and 29.088
Bottom (best-fit value) [2, 6]: 11.58
HillSlope (best-fit value) [2, 6]: 0.4637
Span (best-fit value) [2, 6]: 174.4
Top (best-fit value) [2, 6]: 186
logIC50 (best-fit value) ([2]; Fig5c SEAP via AIR-2-GEMS, four-parameter fit, drug in nM): 2.821
SEAP ([2]; 0.1 nM): 16.9661 U/L and 14.3649 U/L and 16.0293 U/L
SEAP ([2]; 0.5 nM): 32.7217 U/L and 18.5086 U/L and 20.3629 U/L
SEAP ([2]; 1 nM): 9.507 U/L and 8.828 U/L and 9.449 U/L
SEAP ([2]; 5 nM): 12.4048 U/L and 14.8898 U/L and 15.5553 U/L
SEAP ([2]; 10 nM): 53.9453 U/L and 51.1 U/L and 44.2357 U/L
SEAP ([2]; 50 nM): 67.8694 U/L and 53.3505 U/L and 65.0318 U/L
SEAP ([2]; 500 nM): 99.6195 U/L and 87.3604 U/L and 83.3391 U/L
SEAP ([2]; 1000 nM): 116.832 U/L
AIR-2-GEMS controlled SEAP expression ([2]; Fig S13d, Drug-2 0.01 nM): 59.8517 U/L and 85.418 U/L and 69.2527 U/L
CDH-3-TF controlled Luciferase expression ([2]; Fig S13d, Drug-2 0.01 nM): 46959 RLU and 46941 RLU and 46901 RLU
AIR-2-GEMS controlled SEAP expression ([2]; Fig S13d, Drug-2 0.1 nM): 118.67 U/L and 114.835 U/L and 107.758 U/L
CDH-3-TF controlled Luciferase expression ([2]; Fig S13d, Drug-2 0.1 nM): 41162 RLU and 49637 RLU and 46127 RLU
AIR-2-GEMS controlled SEAP expression ([2]; Fig S13d, Drug-2 1 nM): 115.899 U/L and 181.597 U/L and 152.021 U/L
CDH-3-TF controlled Luciferase expression ([2]; Fig S13d, Drug-2 1 nM): 45977 RLU and 44865 RLU and 47068 RLU
AIR-2-GEMS controlled SEAP expression ([2]; Fig S13d, Drug-2 3.14 nM): 134.444 U/L and 173.229 U/L and 165.776 U/L
CDH-3-TF controlled Luciferase expression ([2]; Fig S13d, Drug-2 3.14 nM): 43947 RLU and 39268 RLU and 39254 RLU
AIR-2-GEMS controlled SEAP expression ([2]; Fig S13d, Drug-2 10 nM): 190.854 U/L and 240.534 U/L and 260.228 U/L
CDH-3-TF controlled Luciferase expression ([2]; Fig S13d, Drug-2 10 nM): 47016 RLU and 49191 RLU and 50470 RLU
AIR-2-GEMS controlled SEAP expression ([2]; Fig S13d, Drug-2 31.4 nM): 299.546 U/L and 359.696 U/L and 315.099 U/L
CDH-3-TF controlled Luciferase expression ([2]; Fig S13d, Drug-2 31.4 nM): 45761 RLU and 44242 RLU and 45130 RLU
AIR-2-GEMS controlled SEAP expression ([2]; Fig S13d, Drug-2 100 nM): 326.848 U/L and 345.031 U/L and 379.553 U/L
CDH-3-TF controlled Luciferase expression ([2]; Fig S13d, Drug-2 100 nM): 45390 RLU and 42062 RLU and 45223 RLU
AIR-2-GEMS controlled SEAP expression ([2]; Fig S13d, Drug-2 314 nM): 491.977 U/L and 483.914 U/L and 518.642 U/L
CDH-3-TF controlled Luciferase expression ([2]; Fig S13d, Drug-2 314 nM): 40043 RLU and 38537 RLU and 34569 RLU
AIR-2-GEMS controlled SEAP expression ([2]; Fig S13d, Drug-2 1000 nM): 386.41 U/L and 334.548 U/L and 408.363 U/L
CDH-3-TF controlled Luciferase expression ([2]; Fig S13d, Drug-2 1000 nM): 40262 RLU and 37715 RLU and 45464 RLU
pIC50 ([2]; Homo sapiens, HEK-293T, Fig5c SEAP turn ON via AIR-2-GEMS, four-parameter fit, given as IC50, read-out: IC50 (best-fit value)): 6.18
Reporter background signal [3, 4]: 2.167 and 2.065 and 2.282
Reporter background signal [3, 5]: 2.782 and 3.488 and 3.279
